Experimental data reported in patent US20220251081A1, “HETEROBICYCLIC INHIBITORS OF MAT2A AND METHODS OF USE FOR TREATING CANCER” (priority 2019, published 2022).

What was measured:
HCT116 MTAP +/+ = assay: Inhibition of cellular proliferation, 4 days, Cell Titer Glo, HCT116 MTAP+/+; format: cell-based; settings: Homo sapiens, HCT-116, 96 h, IC50 score, read-out: 4 Day Relative Growth Inhibition (MTAP +/+)
Protocol: (§1) Assay for Inhibition of Cellular Proliferation
(§2) Test compound impact on cancer cell growth was assessed by treating cancer cells with compound for 4 days and then measuring proliferation using an ATP-based cell proliferation readout (Cell Titer Glo, Promega Corporation).
(§3) In a typical assay an isogenic pair of HCT116 human colon carcinoma cell lines which vary only in MTAP deletion status (HCT116 MTAP +/+ and HCT116 MTAP−/−) were plated in 96-well dishes at appropriate cell density. Following 24 hours, cells were then treated with the candidate MAT2A inhibitor. Prior to addition to cells, the compound was first serially diluted in 100% DMSO, typically as a 3-fold serial dilution starting at 500× top dose with 10 dose points including DMSO only control. Compound was then transferred to a working stock plate in cell culture media by adding 5 μL of compound in DMSO to 495 μL of cell culture media. This working stock was then added to cells via a further 5-fold dilution, by adding 25 μL of working stock to 100 μL of cells in culture media. Following compound addition, cells were incubated at 37° C./5% C02 for 4 days.
(§4) To measure inhibition of cellular proliferation, cells were allowed to equilibrate to room temperature for 30 minutes, and were then treated with 125 μL of Cell Titer Glo reagent. The plate was then covered with aluminum foil and shaken for 15 minutes to ensure complete mixing and full cell lysis. Luminescent signal was then measured using a plate-based luminometer Veritas version 1.9.2 using ATP standard curve to confirm assay reproducibility from run to run. This luminescence measure was converted to a proliferation index by subtracting from each data point the ATP luminescence signal measured from a bank (no cells) well and dividing by the ATP luminescence signal measured in 0.2% DMSO control well adjusted for signal in blank well. Compound activity was then represented as a percentage change in proliferation relative to a within-plate DMSO control against log 10 of compound concentration in molar (M) units.

HCT116 MTAP-/- = assay: Inhibition of cellular proliferation, 4 days, Cell Titer Glo, HCT116 MTAP-/-; format: cell-based; settings: Homo sapiens, HCT-116, 96 h, IC50 score, read-out: 4 Day Relative Growth Inhibition (MTAP −/−)
Protocol: as §1, §2, §3, §4

MAT2A homodimer = biological target: T1, MAT2A homodimer (Homo sapiens, UniProt P31153); assay: Biochemical assay: inhibition of recombinant MAT2A homodimer (phosphate release, PiColorLock Gold); settings: MAT2A IC50 score; read-out: Enzyme Inhibition
T1 construct: inferred from Ni sepharose purification and imidazole elution; made in house; host or cells: Sf9 insect cells, recombinant baculovirus (Bac to Bac, pFASTBAC1 vector)
T1 sequence (P31153 whole entry): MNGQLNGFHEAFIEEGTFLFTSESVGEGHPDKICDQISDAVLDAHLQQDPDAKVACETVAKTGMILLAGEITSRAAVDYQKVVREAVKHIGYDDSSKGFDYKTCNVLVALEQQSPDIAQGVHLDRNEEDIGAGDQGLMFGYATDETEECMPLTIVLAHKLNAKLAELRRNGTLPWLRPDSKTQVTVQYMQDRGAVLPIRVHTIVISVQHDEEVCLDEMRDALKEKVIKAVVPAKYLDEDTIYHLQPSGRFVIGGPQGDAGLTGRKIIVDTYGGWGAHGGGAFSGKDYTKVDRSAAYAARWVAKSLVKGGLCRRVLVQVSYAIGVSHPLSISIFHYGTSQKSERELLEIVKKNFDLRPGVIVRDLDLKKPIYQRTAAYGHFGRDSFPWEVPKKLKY
Protocol: Mat2A protein was expressed by recombinant baculovirus in SF9 infected cells using the Bac to Bac system cloned into the pFASTBAC1 vector (Invitrogen, Carlsbad, Calif.). Recombinant MAT2A was isolated from the cell lysate of 150 g of infected cells using HP Ni sepharose column chromatography. Recombinant MAT2A homodimer was eluted with 250 and 500 mM imidazole, and fractions containing MAT2A were identified by sodium dodecyl sulfate polyacrylamide gel electrophoresis and pooled.
For determination of the inhibitory potency of compounds against the MAT2A homodimer, protein was diluted to 4 μg/mL in assay buffer (50 mM Tris, pH 8.0, 50 mM KCl, 15 mM MgCl2, 0.3 mM EDTA, 0.005% [w/v] bovine serum albumin [BSA]). Test compound was prepared in 100% dimethyl sulfoxide (DMSO) at 50× the desired final concentration. A 1 μL volume of compound dilution was added to 40 μL of enzyme dilution and the mixture was allowed to equilibrate for 60 minutes at 25° C. The enzymatic assay was initiated by the addition of 10 μL of substrate mix (500 μM ATP, pH 7.0, 40 μM L-methionine in 1× assay buffer), and the mixture was incubated for a further 60 minutes at 25° C. The reaction was halted and the liberated phosphate released by the enzyme in stoichiometric amounts by the production of S-adenosyl methionine (SAM) was measured using the PiColorLock Gold kit (Innova Biosciences, UK). Absolute product amounts were determined by comparison to a standard curve of potassium phosphate buffer, pH 8.0.

[1] = tested on: SAM in HCT116 human colon carcinoma cell line with deleted MTAP gene; assay: Cellular assay of target engagement (SAM): SAM level by LC-MS/MS after 72 hrs; format: cell-based; settings: HCT-116, IC50 score, read-out: Cell 72 h SAM Inhibition (MTAP −/−)
Protocol: Cellular Assay of Target Engagement (SAM)
Measurement of MAT2A activity in cells was made by direct quantitation of the abundance of the product of its enzymatic activity, SAM. Cancer cells were treated with candidate MAT2A inhibitors for a suitable incubation period, and the cells were then lysed using a reagent which quenched any further enzyme activity. Soluble metabolites including SAM were collected and SAM itself was directly measured from the lysate using quantitative LC-MS/MS.
A typical assay was performed using an HCT116 human colon carcinoma cell line which was genetically engineered to delete the MTAP gene (commercially available from Horizon Discovery). This cell line was utilized because it was determined that loss of the MTAP gene predicts sensitivity to MAT2A inhibitors. Cells were plated in 96-well dishes at appropriate cell density. Following 24 hours, cells were then treated with the candidate MAT2A inhibitor. Prior to addition to cells, the compound was first serially diluted in 100% DMSO, typically as a 3-fold serial dilution starting at 500× top dose with 10 dose points including DMSO only control. Compound was then transferred to a working stock plate in cell culture media by adding 5 μL of compound in DMSO to 495 μL of cell culture media. This working stock was then added to cells via a further 5-fold dilution, by adding 25 μL of working stock to 100 μL of cells in culture media. Following compound addition, cells were incubated at 37° C./5% CO2 for 72 hrs.
To quantitate SAM levels following compound treatment, cells were gently washed once in ammonium carbonate buffer (75 mM at pH 7.4), placed on dry ice, and lysed with metabolite extraction buffer (80% cold methanol and 20% water (v/v) with acetic acid at 1M final concentration with 200 ng/mL deuterated d3-SAM as internal control). Following centrifugation at 4° C. at 3,200 rpm for 30 minutes, the supernatant was collected and stored at −80° C. until analysis by Liquid Chromatography with tandem Mass Spectrometry (LC-MS/MS). LC-MS/MS analysis was performed using an API6500 Mass Spectrometer (Sciex, Framingham, Mass., USA) operating in positive ion spray mode and equipped with a Waters UPLC Acquity (Waters, Milford, Mass., USA) BEH Amide column. Multiple Reaction Monitoring data was acquired for SAM and the d3-SAM standard, using a mass transition pair at m/z 399.2→250.1 and 402.2→250.1, respectively. In a typical LC-MS/MS analysis, the initial flow rate was 0.5 ml/min of 25% mobile phase A (acetonitrile and water at 5:95 (v/v) with 1% formic acid and 10 mM ammonium acetate) and 75% mobile phase B (acetonitrile and water at 95:5 (v/v) with 1% formic acid and 10 mM ammonium acetate), 0.2-0.5 minutes with 75%-35% mobile phase B, 25%-65% mobile phase A, at 0.5 min 65% mobile phase A and 35% mobile phase B, 1.0-1.1 minutes with 35%-75% mobile phase B, 65%-25% mobile phase A, at 1.1 min 25% mobile phase A and 75% mobile phase B with a total run time of 1.5 minutes.

Compound | IC50 (HCT116 MTAP +/+) [nM] | IC50 (HCT116 MTAP-/-) [nM] | IC50 (MAT2A homodimer) [nM] | IC50 [1] [nM]
CCOc1ccc2cc(-c3ccc(OC)cc3)c(=O)n(-c3ccc(OC(F)F)cc3)c2n1 [Example 139] | ≥ 1000 | 100 to 1000 | < 100 | < 100
CCOc1ccc2cc(-c3ccc4nn(C)cc4c3)c(=O)n(-c3ccc(OC(F)F)cc3)c2n1 [Example 140] | 100 to 1000 | < 100 | < 100 | < 100
CCOc1ccc2cc(-c3ccc4nn(C)cc4c3)c(=O)n(-c3ccc(OC)cc3)c2n1 [Example 142] | ≥ 1000 | < 100 | < 100 | < 100
CCOc1ccc2cc(-c3ccc4nn(C)cc4c3)c(=O)n(-c3ccc(NC)nc3)c2n1 [Example 144] | 100 to 1000 | < 100 | < 100 | < 100
CCNc1ccc(-n2c(=O)c(-c3ccc4nn(C)cc4c3)cc3ccc(OCC)nc32)cn1 [Example 145] | ≥ 1000 | < 100 | < 100 | < 100
CNc1ccc(-n2c(=O)c(-c3ccc4nn(C)cc4c3)cc3ccc(OCC(F)F)nc32)cn1 [Example 147] | 100 to 1000 | < 100 | < 100 | < 100
[2H]C([2H])([2H])Oc1ccc(-n2c(=O)c(-c3ccc4nn(C)cc4c3)cc3ccc(OCC)nc32)cc1 [Example 148] | 100 to 1000 | < 100 | < 100 | < 100
[2H]C([2H])([2H])Oc1ccc(-n2c(=O)c(-c3ccc4nn(C)cc4c3)cc3ccc(OCC(F)F)nc32)cc1 [Example 149] | 100 to 1000 | < 100 | < 100 | < 100
CCOc1ccc2cc(-c3ccc4nn(C)cc4c3)c(=O)n(-c3ccc4scnc4c3)c2n1 [Example 150] | ≥ 1000 | < 100 | < 100 | < 100
CCOc1ccc2cc(-c3ccc4nn(C)cc4c3)c(=O)n(-c3ccc(C(F)(F)F)nc3)c2n1 [Example 151, 7-ethoxy-3-(2-methyl-2H-indazol-5-yl)-1-(6-(trifluoromethyl)pyridin-3-yl)-1,8-naphthyridin-2(1H)-one] | ≥ 1000 | < 100 | < 100 | < 100
CCOc1ccc2cc(-c3ccc4nn(C)cc4c3)c(=O)n(-c3ccc(OC(F)(F)F)nc3)c2n1 [Example 152] | ≥ 1000 | < 100 | < 100 | < 100
CCOc1ccc2cc(-c3ccc4nn(C)cc4c3)c(=O)n(-c3ccc(OC(F)(F)F)cc3)c2n1 [Example 153] | ≥ 1000 | < 100 | < 100 | < 100
CCOc1ccc2cc(-c3ccc4nn(C)cc4c3)c(=O)n(-c3ccc(OC(F)F)nc3)c2n1 [Example 155] | ≥ 1000 | < 100 | < 100 | < 100
CCOc1ccc2cc(-c3ccc4nn(C)cc4c3)c(=O)n(-c3ccc(OC)nc3)c2n1 [Example 157] | 100 to 1000 | < 100 | < 100 | < 100
CCOc1ccc2cc(-c3ccc(OC)cc3)c(=O)n(-c3ccc(OC(F)F)nc3)c2n1 [Example 158] | ≥ 1000 | 100 to 1000 | < 100 | 100 to 1000
CCOc1ccc2cc(-c3ccc(OC)cc3)c(=O)n(-c3ccc(NC)nc3)c2n1 [Example 159] | ≥ 1000 | 100 to 1000 | < 100 | < 100
CCOc1ccc2cc(-c3ccc4ncccc4c3)c(=O)n(-c3ccc(Cl)cc3)c2n1 [Example 160] | ≥ 1000 | 100 to 1000 | < 100 | < 100
CCOc1ccc2cc(-c3ccc4nn(C)cc4c3)c(=O)n(-c3ccc(C4CC4)nc3)c2n1 [Example 161] | 100 to 1000 | < 100 | < 100 | < 100
CCOc1ccc2cc(-c3ccc(OC)cc3)c(=O)n(-c3ccc(C4CC4)nc3)c2n1 [Example 162] | ≥ 1000 | 100 to 1000 | < 100 | 100 to 1000
CCOc1ccc2cc(-c3ccc(OC)cc3)c(=O)n(-c3ccc(C4CC4)cc3)c2n1 [Example 163] | ≥ 1000 | 100 to 1000 | < 100 | 100 to 1000
